Results from US7732618B2, “Benzimidazole acetic acids exhibiting CRTH2 receptor antagonism and uses thereof” (Wyeth, priority 2004, dated 2010).
pIC50, pKi: −log10 of the molar value.

How the values were obtained:
human CRTH2 [1] = target: T1, human CRTH2 (Homo sapiens, UniProt Q9Y5Y4); experiment: CRTH2 fluorescent imaging assay (intracellular calcium); format: cell-based; design: expressed in transfected cells; host or cells: HEK 293EBNA-hCRTH2 cells or HT1080-hCRTH2 cells; settings: for pIC50: antagonism of PGD2-induced calcium increase, HEK 293EBNA-hCRTH2 or HT1080-hCRTH2 cells, read-out: RAGE hCRTH2 IC50; for approximate EC75 for PGD2: calcium response
T1 sequence (Q9Y5Y4 1-395): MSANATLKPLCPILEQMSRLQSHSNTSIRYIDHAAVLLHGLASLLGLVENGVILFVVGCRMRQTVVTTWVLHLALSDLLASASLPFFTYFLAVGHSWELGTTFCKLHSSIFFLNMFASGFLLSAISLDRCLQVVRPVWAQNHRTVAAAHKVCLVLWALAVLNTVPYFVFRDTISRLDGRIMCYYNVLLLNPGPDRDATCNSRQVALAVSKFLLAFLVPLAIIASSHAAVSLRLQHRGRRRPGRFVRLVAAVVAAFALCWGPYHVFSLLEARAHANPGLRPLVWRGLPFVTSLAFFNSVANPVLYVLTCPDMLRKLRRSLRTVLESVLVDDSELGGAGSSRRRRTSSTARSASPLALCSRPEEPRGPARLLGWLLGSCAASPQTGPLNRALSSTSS
Method: The ability of the disclosed compounds to act as agonists for the hCRTH2 receptor was determined by their ability to cause increases in intracellular calcium via binding to the CRTH2 receptor.
Assays were performed on HEK 293EBNA-hCRTH2 cells that had been grown in DMEM media containing 10% FBS, […] puromycin and 1% penicillin/streptomycin/glutamine (PSG) at 37° C. in 5% CO2 or on HT1080-hCRTH2 cells (a HT1080 cell line stably expressing human CRTH2) that had been grown in alphaMEM media containing 10% FBS, 500 μg/ml hygromycin, 200 nM methotrexate and 1% PSG at 37° C. in 5% CO2.
For the assay, HEK 293EBNA-hCRTH2 cells or HT1080-hCRTH2 cells were grown to approximately 90% confluency and then dislodged from the plate with Trypsin-EDTA, resuspended in DMEM media, seeded in 384 well plates at 2×10^4 cells per well and incubated overnight at 37° C. The cells were loaded with a calcium sensing dye by removing the growth media and replacing it with 30 μL of dye loading Ringer's buffer (136 mM […], 5.4 mM D-Glucose, 20 mM Hepes pH 7.4, 2.1 mM MgCl2, 0.8 mM CaCl2, 0.2% BSA with 1× Calcium3Dye (Molecular Devices) and 2.5 mM Probenecid (Sigma)) per well. The cells were incubated at 37° C. for 1 hour to allow the dye to enter the cells. Compounds were serially diluted in DMSO and then diluted to 4× their final concentration with Ringer's buffer. The compounds were added to a 384 well plate in quadruplicate. In addition to test compounds, several wells contained Ringer's buffer with DMSO. These wells serve as control wells. 10 μL was transferred from compound/control plate to the plate containing cells loaded with dye by a fluorescent imaging plate reader (Molecular Devices). The fluorescence was measured every 4 seconds for 4 minutes. These measurements indicated the level of intracellular calcium. Increases in fluorescence relative to wells containing buffer only indicated an agonist effect of the compound. Measurement at various compound concentrations allowed one to determine the EC50 for these compounds. Following the 4 minute incubation with compound, 20 μL of Ringer's buffer with either 10 nM or 500 nM PGD2 (approximate EC75 for PGD2 in HEK 293EBNA-hCRTH2 cells and HT1080-hCRTH2 cells, respectively) was added to the wells. Inhibition by the compounds of the calcium response due to antagonism of PGD2 action on CRTH2 is reflected by a decrease in fluorescent signal relative to wells containing no compound. The fluorescence was measured every 2 seconds for 10 seconds before addition of PGD2 and every 2 seconds for 110 seconds following addition. Measurement at various compound concentrations allowed one to determine the IC50 for the compounds. EC50 and IC50 values were determined from the experimental results by nonlinear regression using the Prism 4.0 software.

human CRTH2 [2] = target: T1, human CRTH2; experiment: CRTH-2 binding assay (scintillation proximity assay, inhibition of 3H-PGD2 binding); design: expressed in transfected cells; host or cells: 293EBNA-hCRTH2 cells (membrane preparation); settings: membranes from 293EBNA-hCRTH2 cells, 3H-PGD2 3.6 nM; Ki calculated from IC50
Method: A CRTH2 binding assay was developed to measure the ability of compounds to inhibit the binding of PGD2 to human CRTH2 using a scintillation proximity assay.
Membranes containing hCRTH2 receptors were prepared from 293EBNA-hCRTH2 cells (a 293EBNA cell line stably expressing human CRTH2). The cells were grown to confluency, harvested and washed with PBS. The cells were resuspended in 10 mM Hepes pH 7.4, 1 mM EDTA and protease inhibitors and incubated for 30 min on ice. The cells were homogenized and centrifuged for 10 min at 1000×g. The supernate was centrifuged for 30 min at 100,000×g and the membrane pellet was then resuspended in 10 mM Hepes pH 7.4 and 1 mM EDTA. The protein concentration of the membrane preparation was determined by Bradford assay (Bio-Rad).
The ability of compounds to inhibit the interaction of PGD2 to human CRTH2 was determined at seven compound concentrations. Compounds were serially diluted in DMSO then diluted into CRTH2 buffer (10 mM Hepes pH 7.4, 1 mM EDTA, 10 mM MnCl2) to six times the final desired concentration. 20 μL of the diluted compounds were transferred into non-surface binding 96-well plates (Corning). Each concentration was done in triplicate. In addition to test compounds, each plate contained 12 control wells. Six of these wells contained 20 μL of CRTH2 buffer. These wells were used to measure total binding. Six wells contained 20 μL of CRTH2 buffer plus 1.5 mM indomethacin. These wells were used to measure non-specific binding. Next, 293EBNA-hCRTH2 membranes were resuspended in CRTH2 buffer with glycerol (10 mM Hepes pH 7.4, 1 mM EDTA, 10 mM MnCl2, 25% glycerol) so that the final concentration was approximately 20 μg/100 μL. Polylysine-coated yttrium silicate SPA beads (Amersham) were added to the membrane mix to a concentration of 0.4 mg/100 μL and finally ^3H-PGD2 was added to the membrane/SPA bead mix to 3.6 nM. 100 μL of the membrane/SPA bead/^3H-PGD2 mix was added to each well of the non-surface binding plates containing the diluted compound or controls. The plates were incubated for 2 hours at room temperature with shaking and then the plates were counted on a Microbeta scintillation counter (Perkin Elmer) for 1 min per well.
IC50 values were determined from the experimental results by nonlinear regression using Prism 4.0 software. The IC50 values were then used in conjunction with the Kd for hCRTH2 and the ^3H-PGD2 concentration used in the experiment to calculate the Ki for each compound.

Row | SMILES | pIC50 (human CRTH2 [1]) | pKi (human CRTH2 [2]) | approximate EC75 for PGD2 (human CRTH2 [1]; HEK 293EBNA-hCRTH2 cells) | approximate EC75 for PGD2 (human CRTH2 [1]; HT1080-hCRTH2 cells)
1 | CCCc1nc2cc(N(Cc3ccccc3)C(=O)c3ccccc3F)ccc2n1CC(=O)O [Example 64, {5-[Benzyl-(2-fluoro-benzoyl)-amino]-2-propyl-benzoimidazol-1-yl}-acetic acid] | – | < 5.00 | – | –
2 | CCCc1nc2cc(N(Cc3ccccc3)C(=O)c3cccc(F)c3)ccc2n1CC(=O)O [Example 65, {5-[Benzyl-(3-fluoro-benzoyl)-amino]-2-propyl-benzoimidazol-1-yl}-acetic acid] | – | > 5.00 | – | –
3 | CCCc1nc2cc(N(Cc3ccccc3)C(=O)c3ccc(F)cc3)ccc2n1CC(=O)O [Example 66, {5-[Benzyl-(4-fluoro-benzoyl)-amino]-2-propyl-benzoimidazol-1-yl}-acetic acid] | – | > 6.00 | – | –
4 | CCCc1nc2cc(N(Cc3ccccc3)C(=O)c3ccc(F)c(F)c3)ccc2n1CC(=O)O [Example 67, {5-[Benzyl-(3,4-difluoro-benzoyl)-amino]-2-propyl-benzoimidazol-1-yl}-acetic acid] | – | > 6.00 | – | –
5 | CCCc1nc2cc(N(Cc3ccccc3)C(=O)c3c(F)cccc3F)ccc2n1CC(=O)O [Example 68, {5-[Benzyl-(2,6-difluoro-benzoyl)-amino]-2-propyl-benzoimidazol-1-yl}-acetic acid] | – | > 5.00 | – | –
6 | CCCCC[C@H](O)/C=C/[C@H]1C(=O)C[C@H](O)[C@@H]1C/C=C\CCCC(=O)O [PGD2, prostaglandin D2, reference compound] | – | – | ~10 nM | ~500 nM

Second part, led by results:

Row | pIC50 (human CRTH2 [1]) | pKi (human CRTH2 [2]) | SMILES | approximate EC75 for PGD2 (human CRTH2 [1]; HEK 293EBNA-hCRTH2 cells) | approximate EC75 for PGD2 (human CRTH2 [1]; HT1080-hCRTH2 cells)
7 | 7.29 | > 7.00 | CCCc1nc2cc(N(Cc3ccc(Cl)cc3)S(=O)(=O)c3ccc(F)cc3)ccc2n1CC(=O)O [Example 43, {5-[(4-Chloro-benzyl)-(4-fluoro-benzenesulfonyl)-amino]-2-propyl-benzoimidazol-1-yl}-acetic acid] | – | –
8 | 6.43 | > 6.00 | CCCc1nc2cc(N(C3CCCCC3)S(=O)(=O)c3ccc(F)cc3)ccc2n1CC(=O)O [Example 46, {5-[(Cyclohexyl)-(4-fluoro-benzenesulfonyl)-amino]-2-propyl-benzoimidazol-1-yl}-acetic acid] | – | –
9 | 7.66 | > 7.00 | CCCc1nc2cc(N(CCOc3ccc(Cl)cc3)S(=O)(=O)c3ccc(F)cc3)ccc2n1CC(=O)O [Example 47, {5-[[2-(4-Chloro-phenoxy)-ethyl]-(4-fluoro-benzenesulfonyl)-amino]-2-propyl-benzoimidazol-1-yl}-acetic acid] | – | –
10 | 7.33 | > 7.00 | CCCc1nc2cc(N(CCCOc3ccccc3)S(=O)(=O)c3ccc(F)cc3)ccc2n1CC(=O)O [Example 49, {5-[(4-Fluoro-benzenesulfonyl)-(3-phenoxy-propyl)-amino]-2-propyl-benzoimidazol-1-yl}-acetic acid] | – | –
11 | – | > 7.00 | CCCc1nc2cc(N(Cc3ccccc3)C(=O)c3sccc3C)ccc2n1CC(=O)O [Example 69, {5-[Benzyl-(3-methyl-thiophene-2-carbonyl)-amino]-2-propyl-benzoimidazol-1-yl}-acetic acid] | – | –
12 | 8.15 | > 7.00 | CCCc1nc2cc(N(Cc3ccccc3)C(=O)c3cccs3)ccc2n1CC(=O)O [Example 70, {5-[Benzyl-(thiophene-2-carbonyl)-amino]-2-propyl-benzoimidazol-1-yl}-acetic acid] | – | –
